Measured values from the supplement of paper PMC13380429.

Experiments:
[1] = system: A549-ACE2 infected with SARS-CoV-2; test: cell count relative to DMSO; higher = less toxic; conditions: 24 h
[2] = system: Caco-2; test: cell viability relative to DMSO; higher = less toxic; conditions: 72 h
[3] = system: Calu-3; test: as above; conditions: 72 h
[4] = system: HepG2; test: as above; conditions: 72 h
[5] = system: U2OS; test: as above; conditions: 72 h
[6] = system: Vero E6; test: as above; conditions: 72 h
[7] = system: A549-ACE2 infected with SARS-CoV-2; test: SARS-CoV-2 infection rate relative to DMSO; higher = more infection; conditions: 24 h
[8] = system: A549-ACE2; test: phospholipidosis EC50; higher = less potent phospholipidosis inducer
[9] = system: A549-ACE2; test: drug-induced phospholipidosis relative to tamoxifen; higher = more phospholipidosis
[10] = system: A549-ACE2 infected with SARS-CoV-2; test: morphology score (similarity to uninfected cells); higher = more like uninfected cells; conditions: 24 h
[11] = system: Caco-2; test: relative viability EC50 (midpoint between 100% and the lowest measured viability); higher = less toxic; conditions: 72 h
[12] = system: Calu-3; test: as above; conditions: 72 h
[13] = system: HepG2; test: as above; conditions: 72 h
[14] = system: U2OS; test: as above; conditions: 72 h
[15] = system: Vero E6; test: as above; conditions: 72 h
[16] = system: Caco-2; test: drug sensitivity score (DSS) for viability; higher = more toxic; extreme values may be limits of the assay; conditions: 72 h
[17] = system: Calu-3; test: as above; conditions: 72 h
[18] = system: HepG2; test: as above; conditions: 72 h
[19] = system: U2OS; test: as above; conditions: 72 h
[20] = system: Vero E6; test: as above; conditions: 72 h

O=C(NC1CCN(CCCCC2(C(=O)NCC(F)(F)F)c3ccccc3-c3ccccc32)CC1)c1ccccc1-c1ccc(C(F)(F)F)cc1 [lomitapide]
Conditions | SARS-CoV-2 infection rate [%] | cell count [%] | cell viability [%] | morphology score | phospholipidosis EC50 [nM]
[1], 0.1 µM | – | 96 | – | – | –
[1], 0.3 µM | – | 104 | – | – | –
[1], 1 µM | – | 108 | – | – | –
[1], 3 µM | – | 119 | – | – | –
[2], 1 nM | – | – | 101 | – | –
[2], 10 nM | – | – | 103 | – | –
[2], 100 nM | – | – | 103 | – | –
[2], 1000 nM | – | – | 103 | – | –
[2], 10000 nM | – | – | 11.8 | – | –
[3], 1 nM | – | – | 101 | – | –
[3], 10 nM | – | – | 100 | – | –
[3], 100 nM | – | – | 98.4 | – | –
[3], 1000 nM | – | – | 109 | – | –
[3], 10000 nM | – | – | 1.2 | – | –
[4], 1 nM | – | – | 108 | – | –
[4], 10 nM | – | – | 106 | – | –
[4], 100 nM | – | – | 106 | – | –
[4], 1000 nM | – | – | 100 | – | –
[4], 10000 nM | – | – | -0.5 | – | –
[5], 1 nM | – | – | 101 | – | –
[5], 10 nM | – | – | 110 | – | –
[5], 100 nM | – | – | 104 | – | –
[5], 1000 nM | – | – | 106 | – | –
[5], 10000 nM | – | – | 1.2 | – | –
[6], 1 nM | – | – | 102 | – | –
[6], 10 nM | – | – | 104 | – | –
[6], 100 nM | – | – | 96 | – | –
[6], 1000 nM | – | – | 97.8 | – | –
[6], 10000 nM | – | – | -0.6 | – | –
[7], 0.1 µM | 98 | – | – | – | –
[7], 0.3 µM | 93 | – | – | – | –
[7], 1 µM | 72 | – | – | – | –
[7], 3 µM | 12 | – | – | – | –
[8], 24 h | – | – | – | – | 898
[8], 48 h | – | – | – | – | 1800
[8], 72 h | – | – | – | – | 2500
[10], 0.1 µM | – | – | – | -0.14 | –
[10], 0.3 µM | – | – | – | 0.12 | –
[10], 1 µM | – | – | – | 0.6 | –
[10], 3 µM | – | – | – | 0.91 | –

drug-induced phospholipidosis [%], [9]
Conditions | 0.3 µM | 0.833333 µM | 3.33333 µM | 6.66667 µM | 10 µM | 30 µM
24 h | 11.9 | 29.7 | 81 | 81.2 | 40.9 | 49.8
48 h | 15.5 | 36 | 91.1 | 108 | – | –
72 h | 12.7 | 28.5 | 83.5 | 131 | – | –

Conditions | drug sensitivity score | relative viability EC50 [nM]
[11] | – | 3380
[12] | – | 3610
[13] | – | 3140
[14] | – | 3460
[15] | – | 2970
[16] | 4.6 | –
[17] | 4.9 | –
[18] | 5.6 | –
[19] | 5.1 | –
[20] | 5.9 | –

O=C1/C(=C/c2ccccc2)C[C@@]2(O)[C@H]3Cc4ccc(O)c5c4[C@@]2(CCN3CC2CC2)[C@H]1O5 [BNTX]
Conditions | SARS-CoV-2 infection rate, [7] [%] | cell count, [1] [%] | cell viability, [2] [%] | cell viability, [3] [%] | cell viability, [4] [%] | cell viability, [5] [%] | cell viability, [6] [%] | morphology score, [10]
1 nM | – | – | 100 | 99.5 | 98.3 | 99.5 | 105 | –
10 nM | – | – | 101 | 95.6 | 99.3 | 102 | 102 | –
0.1 µM | 94 | 101 | – | – | – | – | – | 0.09
100 nM | – | – | 91.2 | 102 | 110 | 95.4 | 103 | –
0.3 µM | 93 | 106 | – | – | – | – | – | 0.34
1 µM | 59 | 108 | – | – | – | – | – | 0.64
1000 nM | – | – | 93.8 | 109 | 84.2 | 97.5 | 96.2 | –
3 µM | 11 | 89 | – | – | – | – | – | 0.68
10000 nM | – | – | 30 | 13.1 | 0.5 | 5.7 | 0.4 | –

drug-induced phospholipidosis [%], [9]
Conditions | 0.3 µM | 0.833333 µM | 3.33333 µM | 6.66667 µM
24 h | 0.73 | 2.81 | 24.9 | 20.5
48 h | 0.39 | 0.51 | 26 | –
72 h | 2.04 | 0.605 | – | –

Conditions | drug sensitivity score | relative viability EC50 [nM]
[11] | – | 2430
[12] | – | 3660
[13] | – | 1940
[14] | – | 2970
[15] | – | 2880
[16] | 4.9 | –
[17] | 4.2 | –
[18] | 8.1 | –
[19] | 5.6 | –
[20] | 6.1 | –

OCCN1CCN(CCCN2c3ccccc3Sc3ccc(C(F)(F)F)cc32)CC1 [fluphenazine]
Conditions | SARS-CoV-2 infection rate [%] | cell count [%] | cell viability [%] | morphology score | phospholipidosis EC50 [nM]
[1], 0.1 µM | – | 103 | – | – | –
[1], 0.3 µM | – | 99 | – | – | –
[1], 1 µM | – | 90 | – | – | –
[1], 3 µM | – | 122 | – | – | –
[2], 1 nM | – | – | 101 | – | –
[2], 10 nM | – | – | 100 | – | –
[2], 100 nM | – | – | 88.2 | – | –
[2], 1000 nM | – | – | 85.2 | – | –
[2], 10000 nM | – | – | 64.4 | – | –
[3], 1 nM | – | – | 101 | – | –
[3], 10 nM | – | – | 110 | – | –
[3], 100 nM | – | – | 96.8 | – | –
[3], 1000 nM | – | – | 98.1 | – | –
[3], 10000 nM | – | – | 22.4 | – | –
[4], 1 nM | – | – | 102 | – | –
[4], 10 nM | – | – | 90.9 | – | –
[4], 100 nM | – | – | 95.9 | – | –
[4], 1000 nM | – | – | 96.1 | – | –
[4], 10000 nM | – | – | 49.4 | – | –
[5], 1 nM | – | – | 101 | – | –
[5], 10 nM | – | – | 101 | – | –
[5], 100 nM | – | – | 94.7 | – | –
[5], 1000 nM | – | – | 92.6 | – | –
[5], 10000 nM | – | – | 84.2 | – | –
[6], 1 nM | – | – | 103 | – | –
[6], 10 nM | – | – | 100 | – | –
[6], 100 nM | – | – | 101 | – | –
[6], 1000 nM | – | – | 95.5 | – | –
[6], 10000 nM | – | – | 52 | – | –
[7], 0.1 µM | 97 | – | – | – | –
[7], 0.3 µM | 99 | – | – | – | –
[7], 1 µM | 83 | – | – | – | –
[7], 3 µM | 44 | – | – | – | –
[8], 24 h | – | – | – | – | 3490
[8], 48 h | – | – | – | – | 5080
[8], 72 h | – | – | – | – | 6620
[10], 0.1 µM | – | – | – | 0.13 | –
[10], 0.3 µM | – | – | – | 0.02 | –
[10], 1 µM | – | – | – | 0.49 | –
[10], 3 µM | – | – | – | 0.75 | –

drug-induced phospholipidosis [%], [9]
Conditions | 0.3 µM | 0.833333 µM | 3.33333 µM | 6.66667 µM | 10 µM | 30 µM
24 h | 3.92 | 11.1 | 44.3 | 81.8 | 103 | 78.9
48 h | 2.29 | 10 | 32.4 | 91.3 | 114 | –
72 h | 4.14 | 10.7 | 24.3 | 80.2 | 116 | –

Conditions | drug sensitivity score | relative viability EC50 [nM]
[12] | – | 2990
[13] | – | 2530
[14] | – | > 10000
[16] | 3.4 | –
[17] | 4.5 | –
[18] | 3.3 | –
[19] | 0.5 | –
[20] | 3.2 | –

CN1C(=O)/C(=C2/C(=O)Nc3ccccc32)c2ccccc21 [meisoindigo]
Conditions | SARS-CoV-2 infection rate, [7] [%] | cell count, [1] [%] | cell viability, [2] [%] | cell viability, [4] [%] | cell viability, [5] [%] | cell viability, [6] [%] | morphology score, [10]
1 nM | – | – | 94.4 | 96.1 | 98 | 104 | –
10 nM | – | – | 104 | 101 | 102 | 102 | –
0.1 µM | 103 | 101 | – | – | – | – | -0.25
100 nM | – | – | 93.1 | 90.6 | 97.4 | 98.8 | –
0.3 µM | 103 | 102 | – | – | – | – | -0.21
1 µM | 102 | 98 | – | – | – | – | -0.24
1000 nM | – | – | 87.2 | 75.5 | 99 | 93.7 | –
3 µM | 97 | 101 | – | – | – | – | -0.12
10000 nM | – | – | 73.1 | 49 | 90.1 | 47.7 | –

drug-induced phospholipidosis [%], [9]
Conditions | 0.3 µM | 0.833333 µM | 3.33333 µM | 6.66667 µM | 10 µM | 30 µM
24 h | -2.39 | -5.22 | -2.5 | -1.79 | – | 6.15
48 h | -0.22 | -2.93 | -2.52 | 0.92 | – | 4.45
72 h | 0.716 | -2.02 | -1.09 | 1.04 | 9.76 | 5.86

Conditions | drug sensitivity score | relative viability EC50 [nM]
[13] | – | 868
[14] | – | > 10000
[15] | – | 2180
[16] | 2.2 | –
[18] | 5.6 | –
[19] | 0 | –
[20] | 3.8 | –
